Assay results published in paper PMC5218480 (PLoS ONE, 2017).

Tested on: MV-4-11 cells
Assay: Gene expression microarray analysis (Affymetrix PrimeView) and GSEA
Assay type: cell-based, human
Set-up: RFU PODN (11730768_x_at) / Fold change /veh PODN (11730768_x_at) / RFU LINC00158 (11744669_a_at) / Fold change /veh LINC00158 (11744669_a_at) / RFU DUSP10 (11751237_a_at) / Fold change /veh DUSP10 (11751237_a_at) / RFU ID3 (11757404_x_at) / Fold change /veh ID3 (11757404_x_at) / RFU PLEKHG5 (11737974_s_at) / Fold change /veh PLEKHG5 (11737974_s_at) / RFU LRRC4B (11730491_at) / Fold change /veh LRRC4B (11730491_at) / RFU GIMAP4 (11747438_a_at) / Fold change /veh GIMAP4 (11747438_a_at) / RFU KRT8 (11758183_x_at) / Fold change /veh KRT8 (11758183_x_at) / RFU CNN1 (11734310_a_at) / Fold change /veh CNN1 (11734310_a_at) / RFU VPS37D (11726825_at) / Fold change /veh VPS37D (11726825_at) / RFU C10orf10 (11716522_x_at) / Fold change /veh C10orf10 (11716522_x_at) / RFU KIR2DL2 /// KIR2DL4 /// KIR2DL5A /// KIR2DL5B /// KIR2DS1 /// KIR2DS2 /// KIR2DS3 /// KIR2DS4 /// KIR3DL3 /// KIR3DL3 /// KIR3DS1 (11738374_at) / Fold change /veh KIR2DL2 /// KIR2DL4 /// KIR2DL5A /// KIR2DL5B /// KIR2DS1 /// KIR2DS2 /// KIR2DS3 /// KIR2DS4 /// KIR3DL3 /// KIR3DL3 /// KIR3DS1 (11738374_at) / RFU C1QL1 (11718748_at) / Fold change /veh C1QL1 (11718748_at) / RFU TMPRSS4 (11747572_a_at) / Fold change /veh TMPRSS4 (11747572_a_at) / RFU HAMP (11756126_x_at) / Fold change /veh HAMP (11756126_x_at) / RFU RNFT2 (11725882_a_at) / Fold change /veh RNFT2 (11725882_a_at) / RFU NR4A2 (11747474_a_at) / Fold change /veh NR4A2 (11747474_a_at) / RFU ABCC12 (11746883_a_at) / Fold change /veh ABCC12 (11746883_a_at) / RFU TMEM136 (11760407_x_at) / Fold change /veh TMEM136 (11760407_x_at) / RFU CLDN22 /// WWC2 (11732394_at) / Fold change /veh CLDN22 /// WWC2 (11732394_at) / RFU HLA-DPB1 (11760878_x_at) / Fold change /veh HLA-DPB1 (11760878_x_at) / RFU SPINT1 (11716480_a_at) / Fold change /veh SPINT1 (11716480_a_at) / RFU GAP43 (11754022_s_at) / Fold change /veh GAP43 (11754022_s_at) / RFU A4GNT (11735810_at) / Fold change /veh A4GNT (11735810_at) / RFU PRB3 (11715151_x_at) / Fold change /veh PRB3 (11715151_x_at) / RFU TUBB4B (11761932_at) / Fold change /veh TUBB4B (11761932_at) / RFU CAPN14 (11732068_a_at) / Fold change /veh CAPN14 (11732068_a_at) / RFU TMCC2 (11721928_a_at) / Fold change /veh TMCC2 (11721928_a_at) / RFU IRGQ (11745062_a_at) / Fold change /veh IRGQ (11745062_a_at) / RFU FAM174B (11720279_a_at) / Fold change /veh FAM174B (11720279_a_at) / RFU TMPRSS4 (11748680_a_at) / Fold change /veh TMPRSS4 (11748680_a_at) / RFU FAM212B (11763350_a_at) / Fold change /veh FAM212B (11763350_a_at) / RFU PLEKHG5 (11743358_a_at) / Fold change /veh PLEKHG5 (11743358_a_at) / RFU ZSCAN30 (11745921_a_at) / Fold change /veh ZSCAN30 (11745921_a_at) / RFU CMKLR1 (11741424_a_at) / Fold change /veh CMKLR1 (11741424_a_at) / RFU LOC101060620 /// MAPK8IP1 (11723275_at) / Fold change /veh LOC101060620 /// MAPK8IP1 (11723275_at) / RFU SPTSSB (11747773_x_at) / Fold change /veh SPTSSB (11747773_x_at) / RFU PRSS12 (11739890_at) / Fold change /veh PRSS12 (11739890_at) / RFU BIN1 (11741810_x_at) / Fold change /veh BIN1 (11741810_x_at) / RFU WNT11 (11732464_a_at) / Fold change /veh WNT11 (11732464_a_at) / RFU C10orf10 (11716521_a_at) / Fold change /veh C10orf10 (11716521_a_at) / RFU C5orf56 (11738089_at) / Fold change /veh C5orf56 (11738089_at) / RFU CYB561 (11721691_x_at) / Fold change /veh CYB561 (11721691_x_at) / RFU ANKRD19P (11752326_a_at) / Fold change /veh ANKRD19P (11752326_a_at) / RFU OR2T12 /// OR2T33 /// OR2T8 (11738714_s_at) / Fold change /veh OR2T12 /// OR2T33 /// OR2T8 (11738714_s_at) / RFU VCAN (11748164_a_at) / Fold change /veh VCAN (11748164_a_at) / RFU JSRP1 (11732532_at) / Fold change /veh JSRP1 (11732532_at) / RFU KRTAP10-11 (11738290_x_at) / Fold change /veh KRTAP10-11 (11738290_x_at) / RFU MYO3A (11730013_a_at) / Fold change /veh MYO3A (11730013_a_at) / RFU EBF3 (11725865_a_at) / Fold change /veh EBF3 (11725865_a_at) / RFU CAMK2N1 (11719241_x_at) / Fold change /veh CAMK2N1 (11719241_x_at) / RFU C5orf56 (11738088_a_at) / Fold change /veh C5orf56 (11738088_a_at) / RFU OLFML3 (11715873_a_at) / Fold change /veh OLFML3 (11715873_a_at) / RFU LOC100653217 /// NTM (11731650_a_at) / Fold change /veh LOC100653217 /// NTM (11731650_a_at) / RFU MAPK11 (11762145_a_at) / Fold change /veh MAPK11 (11762145_a_at) / RFU FIZ1 (11724087_x_at) / Fold change /veh FIZ1 (11724087_x_at) / RFU OASL (11726364_x_at) / Fold change /veh OASL (11726364_x_at) / RFU SOX15 (11748057_x_at) / Fold change /veh SOX15 (11748057_x_at) / RFU CD79A (11719716_a_at) / Fold change /veh CD79A (11719716_a_at) / RFU HIST1H1D (11736915_at) / Fold change /veh HIST1H1D (11736915_at) / RFU CASKIN2 (11723855_a_at) / Fold change /veh CASKIN2 (11723855_a_at) / RFU LOC730098 (11760151_x_at) / Fold change /veh LOC730098 (11760151_x_at) / RFU OR4N2 (11742367_at) / Fold change /veh OR4N2 (11742367_at) / RFU PRRT2 (11749266_a_at) / Fold change /veh PRRT2 (11749266_a_at) / RFU SNX32 (11753110_a_at) / Fold change /veh SNX32 (11753110_a_at) / RFU CDHR5 (11726645_a_at) / Fold change /veh CDHR5 (11726645_a_at) / RFU RCAN1 (11760418_a_at) / Fold change /veh RCAN1 (11760418_a_at) / RFU FAM167A (11723789_a_at) / Fold change /veh FAM167A (11723789_a_at) / RFU FAM26E (11764081_at) / Fold change /veh FAM26E (11764081_at) / RFU ISYNA1 (11749810_s_at) / Fold change /veh ISYNA1 (11749810_s_at) / RFU ACY1 (11761880_at) / Fold change /veh ACY1 (11761880_at) / RFU 11764098_at / Fold change /veh 11764098_at / RFU SAMD14 (11745864_x_at) / Fold change /veh SAMD14 (11745864_x_at) / RFU NPB (11741838_a_at) / Fold change /veh NPB (11741838_a_at) / RFU TMPRSS6 (11731388_a_at) / Fold change /veh TMPRSS6 (11731388_a_at) / RFU KRTAP10-2 (11738614_at) / Fold change /veh KRTAP10-2 (11738614_at) / RFU ARHGAP8 /// PRR5-ARHGAP8 (11727945_x_at) / Fold change /veh ARHGAP8 /// PRR5-ARHGAP8 (11727945_x_at) / RFU KRTAP5-7 /// NADSYN1 (11734609_at) / Fold change /veh KRTAP5-7 /// NADSYN1 (11734609_at) / RFU RASL12 (11751679_a_at) / Fold change /veh RASL12 (11751679_a_at) / RFU CDKN2B (11736163_a_at) / Fold change /veh CDKN2B (11736163_a_at) / RFU PRF1 (11729649_at) / Fold change /veh PRF1 (11729649_at) / RFU, ZNF638 /// ZNF638-IT1 / Fold change vs veh, ZNF638 /// ZNF638-IT1 / RFU, PANK3 / Fold change vs veh, PANK3 / RFU, SH3YL1 / Fold change vs veh, SH3YL1 / RFU, ZEB2 / Fold change vs veh, ZEB2 / RFU, NRIP1 / Fold change vs veh, NRIP1 / RFU, PTTG1IP / Fold change vs veh, PTTG1IP / RFU, CAPN2 / Fold change vs veh, CAPN2 / RFU, MED14 / Fold change vs veh, MED14 / RFU, SNORA58 / Fold change vs veh, SNORA58 / RFU, C1orf63 / Fold change vs veh, C1orf63 / RFU, LRRFIP1 / Fold change vs veh, LRRFIP1 / RFU, NDUFAF7 / Fold change vs veh, NDUFAF7 / RFU, SLC12A2 / Fold change vs veh, SLC12A2 / RFU, IBTK / Fold change vs veh, IBTK / RFU, ESF1 / Fold change vs veh, ESF1 / Fold change vs veh, TMEM50B / RFU, TAOK1 / Fold change vs veh, TAOK1 / RFU, ACBD3 / Fold change vs veh, ACBD3 / RFU, TMA16 / Fold change vs veh, TMA16 / RFU, RWDD3 / Fold change vs veh, RWDD3 / RFU, BCAT1 / Fold change vs veh, BCAT1 / RFU, EDEM3 / Fold change vs veh, EDEM3 / RFU, TMEM33 / Fold change vs veh, TMEM33 / RFU, WDR75 / Fold change vs veh, WDR75 / RFU, AHCTF1 / Fold change vs veh, AHCTF1 / RFU, TFRC / Fold change vs veh, TFRC / RFU, ZDHHC17 / Fold change vs veh, ZDHHC17 / RFU, NOM1 / Fold change vs veh, NOM1 / RFU, ARL8B / Fold change vs veh, ARL8B / RFU, ZBTB11 / Fold change vs veh, ZBTB11 / RFU, TAMM41 / Fold change vs veh, TAMM41 / RFU, KIAA1704 /// LOC100996395 / Fold change vs veh, KIAA1704 /// LOC100996395 / RFU, ING1 / Fold change vs veh, ING1 / RFU, TRMT61B / Fold change vs veh, TRMT61B / RFU, FUBP3 / Fold change vs veh, FUBP3 / RFU, TP53 / Fold change vs veh, TP53 / RFU, TNKS2 / Fold change vs veh, TNKS2 / RFU, ZFP14 / Fold change vs veh, ZFP14 / RFU, ACTR2 / Fold change vs veh, ACTR2 / RFU, PPP3R1 / Fold change vs veh, PPP3R1 / RFU, PIK3R1 / Fold change vs veh, PIK3R1 / RFU, HNRNPA1 / Fold change vs veh, HNRNPA1 / RFU, RNF170 / Fold change vs veh, RNF170 / RFU, ZNF28 / Fold change vs veh, ZNF28 / RFU, RNGTT / Fold change vs veh, RNGTT / RFU, OGT / Fold change vs veh, OGT / RFU, BRD1 / Fold change vs veh, BRD1 / RFU, MARS / Fold change vs veh, MARS / RFU, ZNF655 / Fold change vs veh, ZNF655 / RFU, FAHD1 / Fold change vs veh, FAHD1 / RFU, BDP1 / Fold change vs veh, BDP1 / RFU, LRRCC1 / Fold change vs veh, LRRCC1 / RFU, ARID1A / Fold change vs veh, ARID1A / RFU, ZNF146 / Fold change vs veh, ZNF146 / RFU, ZNF330 / Fold change vs veh, ZNF330 / RFU, GPN3 / Fold change vs veh, GPN3 / RFU, C9orf123 / Fold change vs veh, C9orf123 / RFU, N4BP2L2 / Fold change vs veh, N4BP2L2 / RFU, ARFIP1 / Fold change vs veh, ARFIP1 / RFU, FAM179B / Fold change vs veh, FAM179B / RFU, BCL10 / Fold change vs veh, BCL10 / RFU, UHRF1BP1L / Fold change vs veh, UHRF1BP1L / RFU, BET1 / Fold change vs veh, BET1 / RFU, CNOT2 / Fold change vs veh, CNOT2 / RFU, ZNF268 / Fold change vs veh, ZNF268 / Fold change vs veh, ZNF507 / RFU, DGCR2 / Fold change vs veh, DGCR2 / RFU, WDSUB1 / Fold change vs veh, WDSUB1 / Fold change vs veh, HSP90B1 /// MIR3652 / RFU, ADSS / Fold change vs veh, ADSS / RFU, GK / Fold change vs veh, GK / RFU, ZNF148 / Fold change vs veh, ZNF148 / RFU, TAF9 / Fold change vs veh, TAF9 / RFU, SLC1A5 / Fold change vs veh, SLC1A5 / RFU, SLMO2 / Fold change vs veh, SLMO2 / RFU, ABCC4 / Fold change vs veh, ABCC4 / RFU, LOC101060439 /// RAP1B / Fold change vs veh, LOC101060439 /// RAP1B / RFU, RFX7 / Fold change vs veh, RFX7 / RFU, GTPBP10 / Fold change vs veh, GTPBP10 / RFU, CNEP1R1 / Fold change vs veh, CNEP1R1 / RFU, BIVM-ERCC5 /// ERCC5 / Fold change vs veh, BIVM-ERCC5 /// ERCC5 / RFU, ILF3 / Fold change vs veh, ILF3 / RFU 11762660_at / Fold change /veh 11762660_at / RFU VCAN (11757783_s_at) / Fold change /veh VCAN (11757783_s_at) / RFU DDX43 (11728927_at) / Fold change /veh DDX43 (11728927_at) / RFU KRT8 (11758188_x_at) / Fold change /veh KRT8 (11758188_x_at) / RFU NKD1 (11759106_at) / Fold change /veh NKD1 (11759106_at) / RFU SRD5A1 (11742802_a_at) / Fold change /veh SRD5A1 (11742802_a_at) / RFU TPSAB1 /// TPSB2 (11721975_s_at) / Fold change /veh TPSAB1 /// TPSB2 (11721975_s_at) / RFU GSTM3 (11746129_a_at) / Fold change /veh GSTM3 (11746129_a_at) / RFU IL23R (11737362_x_at) / Fold change /veh IL23R (11737362_x_at) / RFU TMEM51 (11727254_a_at) / Fold change /veh TMEM51 (11727254_a_at) / RFU PIWIL2 (11732686_x_at) / Fold change /veh PIWIL2 (11732686_x_at) / RFU ORM1 (11744905_x_at) / Fold change /veh ORM1 (11744905_x_at) / RFU CCDC152 (11743942_at) / Fold change /veh CCDC152 (11743942_at) / RFU ECM1 (11717891_a_at) / Fold change /veh ECM1 (11717891_a_at) / RFU IL23R (11748794_a_at) / Fold change /veh IL23R (11748794_a_at) / RFU TNFAIP8L3 (11732012_x_at) / Fold change /veh TNFAIP8L3 (11732012_x_at) / RFU MBOAT4 (11741988_at) / Fold change /veh MBOAT4 (11741988_at) / RFU 11764193_at / Fold change /veh 11764193_at / RFU TMEM53 (11763286_at) / Fold change /veh TMEM53 (11763286_at) / RFU MAGEB2 (11727129_at) / Fold change /veh MAGEB2 (11727129_at) / RFU TMEM200A (11744735_a_at) / Fold change /veh TMEM200A (11744735_a_at) / RFU CCDC152 (11751479_a_at) / Fold change /veh CCDC152 (11751479_a_at) / RFU FAM211A (11726209_a_at) / Fold change /veh FAM211A (11726209_a_at) / RFU RGS16 (11746705_a_at) / Fold change /veh RGS16 (11746705_a_at) / RFU VCAN (11755009_s_at) / Fold change /veh VCAN (11755009_s_at) / RFU RHOB (11743442_s_at) / Fold change /veh RHOB (11743442_s_at) / RFU RGS16 (11720943_a_at) / Fold change /veh RGS16 (11720943_a_at) / RFU RGS16 (11720944_at) / Fold change /veh RGS16 (11720944_at) / RFU, VPS4B / Fold change vs veh, VPS4B / RFU, CREB1 / Fold change vs veh, CREB1 / RFU, DNAJC13 / Fold change vs veh, DNAJC13 / RFU, GNAQ / Fold change vs veh, GNAQ / RFU, CDK5R1 / Fold change vs veh, CDK5R1 / RFU, ZRANB3 / Fold change vs veh, ZRANB3 / RFU, CUL4A / Fold change vs veh, CUL4A / RFU, CCNY / Fold change vs veh, CCNY / RFU, UFL1 / Fold change vs veh, UFL1 / RFU, COG3 / Fold change vs veh, COG3 / RFU, DIAPH2 / Fold change vs veh, DIAPH2 / RFU, SKA2 / Fold change vs veh, SKA2 / RFU, AFF3 / Fold change vs veh, AFF3 / RFU, LMF1 / Fold change vs veh, LMF1 / RFU, IPO11 / Fold change vs veh, IPO11 / RFU, DFFB / Fold change vs veh, DFFB / RFU, FOXP1 / Fold change vs veh, FOXP1 / RFU, CARD8 / Fold change vs veh, CARD8 / RFU, STRN3 / Fold change vs veh, STRN3 / RFU, ADK / Fold change vs veh, ADK / RFU, RASSF2 / Fold change vs veh, RASSF2 / RFU, WIPF1 / Fold change vs veh, WIPF1 / RFU, LARP1B / Fold change vs veh, LARP1B / RFU, RASA1 / Fold change vs veh, RASA1 / RFU, RB1 / Fold change vs veh, RB1 / RFU, PPFIA1 / Fold change vs veh, PPFIA1 / RFU, MAT2A / Fold change vs veh, MAT2A / RFU, CCT5 / Fold change vs veh, CCT5 / RFU, WDR92 / Fold change vs veh, WDR92 / RFU, CUX1 / Fold change vs veh, CUX1 / RFU, TTC7A / Fold change vs veh, TTC7A / RFU, TMEM135 / Fold change vs veh, TMEM135 / RFU, DEPTOR / Fold change vs veh, DEPTOR / RFU, CPM / Fold change vs veh, CPM / RFU, DNAJB6 / Fold change vs veh, DNAJB6 / RFU, CACNA2D3 / Fold change vs veh, CACNA2D3 / RFU, DTX4 / Fold change vs veh, DTX4 / RFU, TFCP2 / Fold change vs veh, TFCP2 / RFU, GMCL1 /// GMCL1P1 / Fold change vs veh, GMCL1 /// GMCL1P1 / RFU, AEBP2 / Fold change vs veh, AEBP2 / RFU, SNHG1 /// SNORD22 /// SNORD25 /// SNORD26 /// SNORD27 /// SNORD28 /// SNORD29 /// SNORD31 / Fold change vs veh, SNHG1 /// SNORD22 /// SNORD25 /// SNORD26 /// SNORD27 /// SNORD28 /// SNORD29 /// SNORD31 / Fold change (Aza/veh), C12orf56 (ProbeSet 11735607_a_at) / Fold change (ACY-1035/veh), C12orf56 (ProbeSet 11735607_a_at) / Fold change (Aza/veh), FGFR1OP (ProbeSet 11751329_s_at) / Fold change (ACY-1035/veh), FGFR1OP (ProbeSet 11751329_s_at) / Fold change (Aza/veh), VPS36 (ProbeSet 11739960_a_at) / Fold change (ACY-1035/veh), VPS36 (ProbeSet 11739960_a_at) / RFU SYPL1 (11715823_x_at) / Fold change /veh SYPL1 (11715823_x_at) / RFU IGFBP7 (11715501_s_at) / Fold change /veh IGFBP7 (11715501_s_at) / RFU REEP3 (11722064_at) / Fold change /veh REEP3 (11722064_at) / RFU IGLL1 (11728026_x_at) / Fold change /veh IGLL1 (11728026_x_at): dose or concentration left out as unconfirmed
Conditions: ProbeSet 11757268_x_at; LIST B

Nc1ncn([C@@H]2O[C@H](CO)[C@@H](O)[C@H]2O)c(=O)n1 [azacitidine]
RFU, HNRNPA1: 4469.53 RFU
